Measured values from US20120083471A1, “Novel Compounds, Pharmaceutical Compositions Containing Same, Methods of Use for Same, and Methods for Preparing Same” (priority 2008, published 2012).
Read-outs that look alike come from different tables or passages of the source. Blank lines part the entries; values can stand above or below the compound they belong to.

Columns and labels:
[1] = target: T1, mtGPAT1 (Mus musculus, UniProt Q61586); test: In vitro mtGPAT inhibition: acylation of 14C-glycerol 3-phosphate with palmitoyl-CoA, scintillation counting; assay type: biochemical
T1 construct: from tissue; host or cells: mitochondrial preparation
T1 sequence (Q61586 1-827): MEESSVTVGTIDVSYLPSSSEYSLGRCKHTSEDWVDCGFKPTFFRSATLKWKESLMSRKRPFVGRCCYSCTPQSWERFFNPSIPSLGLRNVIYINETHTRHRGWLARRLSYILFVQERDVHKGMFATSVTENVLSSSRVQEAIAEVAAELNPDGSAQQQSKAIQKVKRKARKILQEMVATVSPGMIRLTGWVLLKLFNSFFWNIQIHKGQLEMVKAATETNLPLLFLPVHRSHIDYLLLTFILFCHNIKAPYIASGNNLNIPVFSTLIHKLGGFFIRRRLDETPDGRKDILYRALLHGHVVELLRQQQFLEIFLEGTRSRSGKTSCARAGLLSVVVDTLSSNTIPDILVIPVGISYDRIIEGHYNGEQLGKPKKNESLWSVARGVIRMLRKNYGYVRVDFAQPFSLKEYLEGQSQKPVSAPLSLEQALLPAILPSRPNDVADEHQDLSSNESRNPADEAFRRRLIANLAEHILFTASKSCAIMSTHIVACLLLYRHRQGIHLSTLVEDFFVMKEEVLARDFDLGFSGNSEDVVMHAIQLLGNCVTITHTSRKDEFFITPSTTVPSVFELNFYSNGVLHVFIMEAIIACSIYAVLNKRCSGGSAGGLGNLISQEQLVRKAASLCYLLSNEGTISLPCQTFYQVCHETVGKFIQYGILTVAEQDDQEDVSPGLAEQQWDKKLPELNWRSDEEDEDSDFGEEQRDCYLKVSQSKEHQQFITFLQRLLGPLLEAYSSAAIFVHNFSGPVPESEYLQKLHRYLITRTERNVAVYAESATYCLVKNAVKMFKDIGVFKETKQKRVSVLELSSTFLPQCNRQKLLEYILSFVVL
Protocol: The compounds produced as described above were evaluated for their ability to inhibit the acylation of glycerol-3-phosphate in vitro. The acylation reaction between ^14C-labelled glycerol-3-phosphate and palmitoyl-CoA, initiated by adding mtGPAT, was measured in the presence of varying concentrations of the inhibitor by scintillation counting as described in more detail below.
A mitochondrial preparation of glycerol 3-phosphate acyltransferase was added to the incubation mixture containing ^14C-labeled glycerol 3-phosphate, palmitoyl-CoA, and varying inhibitor concentrations to initiate the reaction. After ten min, the reaction was terminated by adding chloroform, methanol, and 1% perchloric acid. Five minutes later, more chloroform and perchloric acid were added, and the upper aqueous layer was removed. After washing three times with 1% perchloric acid, the organic layer was evaporated under nitrogen, and the amount of ^14C present was counted to determine the extent of reaction inhibition. Data points were recorded in triplicate, and IC50 values were calculated based on the amount of test inhibitor necessary to produce 50% of mtGPAT activity observed in the absence of inhibitor but in the presence of DMSO vehicle control.

[2] = tested on: FAO; test: FAO (SC 150 and Max) entries of the compound data sheets
[3] = Table 3, sulfonamides 21a-c and 24a-f, triplicate, read-out: IC50 (μM) ± SD, In Vitro Anti-mtGPAT1 Activity
[4] = Table 1, sulfonamides 5a-f and 13a-f, triplicate, read-out: IC50 (μM) ± SD, In Vitro Anti-mtGPAT1 Activity
[5] = compounds 4a-t and 7a-t, read-out: GPAT IC50
[6] = Table 2, sulfonamides 15a-i and 17a-f, triplicate, read-out: IC50 (μM) ± SD, In Vitro Anti-mtGPAT1 Activity

SMILES: CCCCCCCCCS(=O)(=O)Nc1ccc(CP(=O)(O)O)cc1 [Compound 13f, 4-(Nonylsulfonamido)benzylphosphonic acid]
IC50 [1, 4]: 30.7 µM

SMILES: CCCCCCCCS(=O)(=O)Nc1cc(-c2ccccc2-c2ccccc2)ccc1C(=O)O
FAO SC 150 [2]: FAS (IC50) Not Tested CPT I Stim Not Tested FAO SC 150 Neg SA/MH (MIC) ug/ml
IC50 [1, 5]: 18 µM

SMILES: CCCCCCCCS(=O)(=O)Nc1ccc(-c2ccccc2-c2ccccc2)cc1C(=O)O
FAO SC 150 [2]: FAS (IC50) Not Tested CPT I Stim Not Tested FAO SC 150 Neg SA/MH (MIC) ug/ml
IC50 [1, 5]: 13.5 µM

SMILES: CCCCCCCCS(=O)(=O)Nc1ccc(-c2ccc(O)cc2)cc1C(=O)O
IC50 [1, 5]: 60.9 µM

SMILES: CCCCCCCCS(=O)(=O)Nc1cc(-c2cccnc2)ccc1C(=O)O
FAO SC 150 [2]: FAS (IC50) Not Tested CPT I Stim Not Tested FAO SC 150 Neg SA/MH (MIC) ug/ml
IC50 [1, 5]: 65.8 µM

SMILES: CCCCCCCCS(=O)(=O)Nc1ccc(-c2ccccc2Cl)cc1C(=O)O
FAO SC 150 [2]: FAS (IC50) Not Tested CPT I Stim Not Tested FAO SC 150 Neg SA/MH (MIC) ug/ml
IC50 [1, 5]: 14.4 µM

SMILES: CCCCCCCCS(=O)(=O)Nc1cc(-c2ccc(C#N)cc2)ccc1C(=O)O
FAO SC 150 [2]: FAS (IC50) Not Tested CPT I Stim Not Tested FAO SC 150 Neg SA/MH (MIC) ug/ml
IC50 [1, 5]: 20 µM

SMILES: CCCCCCCCCS(=O)(=O)Nc1ccccc1CP(=O)(O)O [Compound 13b, 2-(Nonylsulfonamido)benzylphosphonic acid]
IC50 [1, 4]: 30.6 µM

SMILES: CCCCCCCCS(=O)(=O)Nc1cc(-c2cccc(C(C)=O)c2)ccc1C(=O)O
FAO SC 150 [2]: FAS (IC50) Not Tested CPT I Stim Not Tested FAO SC 150 Neg SA/MH (MIC) ug/ml
IC50 [1, 5]: 29.2 µM

SMILES: CCCCCCCCS(=O)(=O)Nc1cc(-c2ccc(F)cc2)ccc1C(=O)O
IC50 [1, 5]: 25.3 µM

SMILES: CCCCCCCCS(=O)(=O)Nc1ccc(-c2ccc(-c3ccccc3)cc2)cc1C(=O)O
FAO SC 150 [2]: FAS (IC50) Not Tested CPT I Stim Not Tested FAO SC 150 Neg SA/MH (MIC) ug/ml
IC50 [1, 5]: 65.7 µM

SMILES: CCCCCCCCS(=O)(=O)Nc1ccc(-c2ccc(Cl)cc2Cl)cc1C(=O)O
FAO SC 150 [2]: FAS (IC50) Not Tested CPT I Stim Not Tested FAO SC 150 Neg SA/MH (MIC) ug/ml
IC50 [1, 5]: 17.2 µM

SMILES: CCCCCCCCS(=O)(=O)Nc1cc(-c2ccc(-c3ccccc3)cc2)ccc1C(=O)O
FAO SC 150 [2]: FAS (IC50) Not Tested CPT I Stim Not Tested FAO SC 150 Neg SA/MH (MIC) ug/ml
IC50 [1, 5]: 17.4 µM

SMILES: CCCCCCCCS(=O)(=O)Nc1cc(-c2ccccc2OC)ccc1C(=O)O
FAO SC 150 [2]: FAS (IC50) Not Tested CPT I Stim Not Tested FAO SC 150 Neg SA/MH (MIC) ug/ml
IC50 [1, 5]: 17.6 µM

SMILES: CCCCCCCCS(=O)(=O)Nc1ccc(-c2cc(Cl)cc(Cl)c2)cc1C(=O)O
IC50 [1, 5]: 19 µM

SMILES: CCCCCCCCS(=O)(=O)Nc1ccc(-c2ccc(OC)cc2)cc1C(=O)O
FAO SC 150 [2]: FAS (IC50) Not Tested CPT I Stim Not Tested FAO SC 150 Neg SA/MH (MIC) ug/ml
IC50 [1, 5]: 19.1 µM

SMILES: CCCCCCCCS(=O)(=O)Nc1cc(-c2cccc(O)c2)ccc1C(=O)O
IC50 [1, 5]: 55.5 µM

SMILES: CCCCCCCCS(=O)(=O)Nc1ccc(-c2cccs2)cc1C(=O)O
FAO SC 150 [2]: FAS (IC50) Not Tested CPT I Stim Not Tested FAO SC 150 Neg SA/MH (MIC) ug/ml
IC50 [1, 5]: 22.2 µM

SMILES: CCCCCS(=O)(=O)Nc1ccccc1CP(=O)(O)O [Compound 13a, 2-(Pentylsulfonamido)benzylphosphonic acid]
IC50 [1, 4]: 41.4 ± 8.4 µM

SMILES: CCCCCCCCS(=O)(=O)Nc1ccc(-c2cccc(O)c2)cc1C(=O)O
IC50 [1, 5]: 57.7 µM

SMILES: CCCCCCCCS(=O)(=O)Nc1cc(-c2cc(Cl)cc(Cl)c2)ccc1C(=O)O
IC50 [1, 5]: 19.2 µM

SMILES: CCCCCCCCS(=O)(=O)Nc1cc(-c2cccc(F)c2)ccc1C(=O)O
IC50 [1, 5]: 28.7 µM

SMILES: CCCCCCCCS(=O)(=O)Nc1cc(-c2ccccc2F)ccc1C(=O)O
IC50 [1, 5]: 55.7 µM

SMILES: CCCCCCCCS(=O)(=O)Nc1cc(-c2ccc(Cl)cc2Cl)ccc1C(=O)O
IC50 [1, 5]: 18.3 µM

SMILES: CCCCCCCCS(=O)(=O)Nc1cc(-c2ccccc2O)ccc1C(=O)O
IC50 [1, 5]: 62.6 µM

SMILES: CCCCCCCCS(=O)(=O)Nc1ccc(-c2ccc(F)cc2)cc1C(=O)O
IC50 [1, 5]: 20.6 µM

SMILES: CCCCCCCCS(=O)(=O)Nc1cc(-c2ccc(O)cc2)ccc1C(=O)O
IC50 [1, 5]: 66.1 µM

Continued, values first:

IC50 [1, 3]: 33.3 ± 3.8 µM
SMILES: CCCCCCCCS(=O)(=O)Nc1ccc(P(=O)(O)O)cc1 [Compound 21a, 4-(Octylsulfonamido)phenylphosphonic acid]

IC50 [1, 3]: 11.5 ± 0.7 µM
SMILES: CCCCCCCCCS(=O)(=O)Nc1ccc(Cl)cc1C(=O)O [Compound 24d, 5-Chloro-2-(nonylsulfonamido)benzoic acid]

IC50 [1, 6]: 33.7 ± 1.3 µM
SMILES: O=C(O)c1ccc(NS(=O)(=O)c2ccc(Cl)cc2)cc1 [Compound 15c, 4-(4-Chlorophenylsulfonamido)benzoic acid]

IC50 [1, 6]: 23.6 ± 1.2 µM
SMILES: O=C(O)c1cccc(NS(=O)(=O)c2ccc(Cl)cc2)c1 [Compound 15f, 3-(4-Chlorophenylsulfonamido)benzoic acid]

IC50 [1, 6]: 63 ± 12.9 µM
SMILES: O=C(O)c1ccc(NS(=O)(=O)CCc2ccccc2)cc1 [Compound 17b, 4-(2-Phenylethylsulfonamido)benzoic acid]

IC50 [1, 6]: 29.1 ± 4.3 µM
SMILES: CCCCCCCCCS(=O)(=O)Nc1ccc(C(=O)O)cc1 [Compound 15a, 4-(Nonylsulfonamido)benzoic acid]

IC50 [1, 6]: 40.7 ± 1.2 µM
SMILES: O=C(O)c1ccccc1NS(=O)(=O)Cc1ccccc1 [Compound 17e, 2-(Phenylmethylsulfonamido)benzoic acid]

IC50 [1, 6]: 52.1 ± 9 µM
SMILES: O=C(O)c1cccc(NS(=O)(=O)Cc2ccccc2)c1 [Compound 17c, 3-(Phenylmethylsulfonamido)benzoic acid]

IC50 [1, 6]: 33.5 ± 2.5 µM
SMILES: O=C(O)c1ccccc1NS(=O)(=O)c1ccc(Cl)cc1 [Compound 15i, 2-(4-Chlorophenylsulfonamido)benzoic acid]

IC50 [1, 3]: 28.6 ± 4.6 µM
SMILES: CS(=O)(=O)Nc1ccccc1C(=O)O [Compound 24a, 2-(Methylsulfonamido)benzoic acid]

IC50 [1, 6]: 41.9 ± 5.3 µM
SMILES: O=C(O)c1ccc(NS(=O)(=O)c2ccccc2)cc1 [Compound 15b, 4-(Phenylsulfonamido)benzoic acid]

IC50 [1, 6]: 38.3 ± 7.6 µM
SMILES: O=C(O)c1cccc(NS(=O)(=O)c2ccccc2)c1 [Compound 15e, 3-(Phenylsulfonamido)benzoic acid]

IC50 [1, 3]: 25.3 ± 5.4 µM
SMILES: CCCCCCCCS(=O)(=O)Nc1cccc(P(=O)(O)O)c1 [Compound 21b, 3-(Octylsulfonamido)phenylphosphonic acid]

IC50 [1, 6]: 50.3 ± 4.4 µM
SMILES: O=C(O)c1cccc(NS(=O)(=O)CCc2ccccc2)c1 [Compound 17d, 3-(2-Phenylethylsulfonamido)benzoic acid]

IC50 [1, 3]: 25.7 ± 2.5 µM
SMILES: CCCCCCCCS(=O)(=O)Nc1ccccc1P(=O)(O)O [Compound 21c, 2-(Octylsulfonamido)phenylphosphonic acid]

IC50 [1, 6]: 46.4 ± 4.5 µM
SMILES: O=C(O)c1ccccc1NS(=O)(=O)CCc1ccccc1 [Compound 17f, 2-(2-Phenylethylsulfonamido)benzoic acid]

IC50 [1, 6]: 64.5 ± 11.6 µM
SMILES: O=C(O)c1ccc(NS(=O)(=O)Cc2ccccc2)cc1 [Compound 17a, 4-(Phenylmethylsulfonamido)benzoic acid]
